{
  "source": "paper PMC4860824",
  "about": "“Targeting the γ-/β-secretase interaction reduces β-amyloid generation and ameliorates Alzheimer’s disease-related pathogenesis” (Cell Discovery, 2015)",
  "molecular_target": "T1, presenilin-1 (PS1) (Homo sapiens, UniProt P49768)",
  "T1 construct": "gene PSEN1; PS1-NTF",
  "assay": "dose-dependent competition with XYT1032 photo-affinity labelling in HEK293T cells ([…])",
  "type": "cell-based",
  "data": [
    {"smiles": "C=C1CCC2(C(=O)O)CC[C@]3(C)C(=CC[C@H]4C3(C)CC[C@H]3C(C)(C)[C@H](O)CC[C@@]34C)[C@@H]2C1", "note": "(stereo partly drawn) [3AA, 3-α-Akebonoic acid]", "values": [
      {"measurement": "dose-dependent competition with XYT1032 photo-affinity labelling in HEK293T cell", "result": "in the presence of XYT472B or 3AA, the labeling of PS1-NTF was decreased dose dependently"}
    ]}
  ]
}
